Results on 16 compounds are retold here after patent US20230203026A1, “PESTICIDAL COMPOSITIONS AND METHODS” (CORTEVA AGRISCIENCE LLC, priority 2017, published 2023).

The structures appear in SMILES notation.

In test [1] the test system is Cabbage Looper (Trichloplusia ni, TRIPNI) ("CL"). In words: Insecticidal test for cabbage looper, 128-well diet tray assay. The following applies: Trichoplusia ni, 168 h; 50 μg/cm^2 of test compound on artificial diet; second instar CL larvae; 25° C.; five to seven days; average of eight wells; read-out: CL % Control (or Mortality) rating. The class given is in vivo. On the procedure: Insecticidal Test for Cabbage Looper (Trichloplusia ni, TRIPNI) (“CL”)
(§1) Bioassays on cabbage looper (CL; Trichloplusia ni: Lepidoptera) are conducted using a 128-well diet tray assay. One to five second instar CL larvae are placed in each well (3 mL) of the diet tray that had been previously filled with 1 mL of artificial diet to which 50 μg/cm^2 of the test compound (dissolved in 50 μL of 90:10 acetone-water mixture) had been applied (to each of eight wells) and then allowed to dry. Trays are covered with a clear self-adhesive cover, vented to allow gas exchange, and held at 25° C., 14:10 light-dark for five to seven days. Percent mortality is recorded for the larvae in each well; activity in the eight wells is then averaged.

In test [2] the test system is beet armyworm (Spodoptera exigua, LAPHEG) ("BAW"). The experiment in a line: Insecticidal test for beet armyworm, 128-well diet tray assay. The following applies: 168 h, 50 μg/cm^2 of test compound on artificial diet, second instar BAW larvae, 25° C., five to seven days, average of eight wells, read-out: BAW % Control (or Mortality) rating. The class given is in vivo. On the procedure: Insecticidal test for beet armyworm (Spodoptera exigua, LAPHEG) (“BAW”)
as §1, with “beet armyworm (BAW; Spodoptera exigua:” for “cabbage looper (CL; Trichloplusia ni:”, “BAW” for “CL”

Turning to `CC(ONC(=O)/N=C1\SCC(=O)N1c1cc(Cl)ccc1OCC(F)(F)F)c1ccc(-c2ncn(-c3ccc(OC(F)(F)F)cc3)n2)cc1` (centres unmarked) [A20, (Z)-1-(3-(5-Chloro-2-(2,2,2-trifluoroethoxy)phenyl)-4-oxothiazolidin-2-ylidene)-3-(1-(4-(1-(4-(trifluoromethoxy)phenyl)-1H-1,2,4-triazol-3-yl)phenyl)ethoxy)urea], the mortality at 50 µg/cm2 in test [1] and in test [2] was 50 to 100% in each case.
In the case of `CC(C)c1ccc(Cl)cc1N1C(=O)CS/C1=N\C(=O)NOC(C)c1ccc(-c2ncn(-c3ccc(OC(F)(F)F)cc3)n2)cc1` (centres unmarked) [A21, (Z)-1-(3-(5-Chloro-2-isopropylphenyl)-4-oxothiazolidin-2-ylidene)-3-(1-(4-(1-(4-(trifluoromethoxy)phenyl)-1H-1,2,4-triazol-3-yl)phenyl)ethoxy)urea], the mortality at 50 µg/cm2 in test [1] and in test [2] was 50 to 100% each time.
Take `Cc1ccc(Cl)c(N2C(=O)CS/C2=N\C(=O)NOCc2ccc(-c3ncn(-c4ccc(OC(F)(F)F)cc4)n3)cc2)c1` [A22, (Z)-1-(3-(2-Chloro-5-methylphenyl)-4-oxothiazolidin-2-ylidene)-3-((4-(1-(4-(trifluoromethoxy)phenyl)-1H-1,2,4-triazol-3-yl)benzyl)oxy)urea]: the mortality at 50 µg/cm2 in test [1] and in test [2] was 50 to 100% each time.
Turning to `CCCc1ccc(OC)cc1N1C(=O)CS/C1=N\C(=O)NOCc1ccc(-c2ncn(-c3ccc(OC(F)(F)F)cc3)n2)cc1` [A23, (Z)-1-(3-(5-Methoxy-2-propylphenyl)-4-oxothiazolidin-2-ylidene)-3-((4-(1-(4-(trifluoromethoxy)phenyl)-1H-1,2,4-triazol-3-yl)benzyl)oxy)urea], the mortality at 50 µg/cm2 in test [1] and in test [2] was 50 to 100% throughout.
Turning to `Cc1ccc(C(F)(F)F)c(N2C(=O)CS/C2=N\C(=O)NOCc2ccc(-c3ncn(-c4ccc(OC(F)(F)F)cc4)n3)cc2)c1` [A24, (Z)-1-(3-(5-Methyl-2-(trifluoromethyl)phenyl)-4-oxothiazolidin-2-ylidene)-3-((4-(1-(4-(trifluoromethoxy)phenyl)-1H-1,2,4-triazol-3-yl)benzyl)oxy)urea], the mortality at 50 µg/cm2 in test [1] and in test [2] was 50 to 100% throughout.
As for `COc1ccc(CC(F)(F)F)c(N2C(=O)CS/C2=N\C(=O)NOCc2ccc(-c3ncn(-c4ccc(OC(F)(F)F)cc4)n3)cc2)c1` [A25, (Z)-1-(3-(5-Methoxy-2-(2,2,2-trifluoroethyl)phenyl)-4-oxothiazolidin-2-ylidene)-3-((4-(1-(4-(trifluoromethoxy)phenyl)-1H-1,2,4-triazol-3-yl)benzyl)oxy)urea], the mortality at 50 µg/cm2 in test [1] and in test [2] was 50 to 100% throughout.
For `COc1ccc(C(C)C)c(N2C(=O)CS/C2=N\C(=O)NOCc2ccc(-c3ncn(-c4ccc(OC(F)(F)F)cc4)n3)cc2)c1` [A26, (Z)-1-(3-(2-Isopropyl-5-methoxyphenyl)-4-oxothiazolidin-2-ylidene)-3-((4-(1-(4-(trifluoromethoxy)phenyl)-1H-1,2,4-triazol-3-yl)benzyl)oxy)urea], the mortality at 50 µg/cm2 in test [1] and in test [2] was 50 to 100% each time.
Regarding `COCc1ccc(C)cc1N1C(=O)CS/C1=N\C(=O)NOCc1ccc(-c2ncn(-c3ccc(OC(F)(F)F)cc3)n2)cc1` [A27, (Z)-1-(3-(2-(Methoxymethyl)-5-methylphenyl)-4-oxothiazolidin-2-ylidene)-3-((4-(1-(4-(trifluoromethoxy)phenyl)-1H-1,2,4-triazol-3-yl)benzyl)oxy)urea], the mortality at 50 µg/cm2 in test [1] and in test [2] was 50 to 100% throughout.
As for `Cc1ccc(C(C)C)c(N2C(=O)CS/C2=N\C(=O)NOCc2ccc(-c3ncn(-c4ccc(OC(F)(F)F)cc4)n3)cc2)c1` [A28, (Z)-1-(3-(2-Isopropyl-5-methylphenyl)-4-oxothiazolidin-2-ylidene)-3-((4-(1-(4-(trifluoromethoxy)phenyl)-1H-1,2,4-triazol-3-yl)benzyl)oxy)urea], the mortality at 50 µg/cm2 in test [1] and in test [2] was 50 to 100% each time.
On to `CC(C)c1ccccc1N1C(=O)CS/C1=N\C(=O)NOCc1ccc(-c2ncn(-c3ccc(OC(F)(F)F)cc3)n2)cc1` [A29, (Z)-1-(3-(2-Isopropylphenyl)-4-oxothiazolidin-2-ylidene)-3-((4-(1-(4-(trifluoromethoxy)phenyl)-1H-1,2,4-triazol-3-yl)benzyl)oxy)urea], for which the mortality at 50 µg/cm2 in test [1] and in test [2] was 50 to 100% in each case.
With `Cc1ccc(OCC(F)(F)F)c(N2C(=O)CS/C2=N\C(=O)NOCc2ccc(-c3ncn(-c4ccc(OC(F)(F)F)cc4)n3)cc2)c1` [A30, (Z)-1-(3-(5-Methyl-2-(2,2,2-trifluoroethoxy)phenyl)-4-oxothiazolidin-2-ylidene)-3-((4-(1-(4-(trifluoromethoxy)phenyl)-1H-1,2,4-triazol-3-yl)benzyl)oxy)urea], the mortality at 50 µg/cm2 in test [1] and in test [2] was 50 to 100% each time.
`O=C(/N=C1\SCC(=O)N1c1cc(Cl)ccc1OCC(F)(F)F)NOCc1ccc(-c2ncn(-c3ccc(OC(F)(F)F)cc3)n2)cc1` [A31, (Z)-1-(3-(5-Chloro-2-(2,2,2-trifluoroethoxy)phenyl)-4-oxothiazolidin-2-ylidene)-3-((4-(1-(4-(trifluoromethoxy)phenyl)-1H-1,2,4-triazol-3-yl)benzyl)oxy)urea]: the mortality at 50 µg/cm2 in test [1] and in test [2] was 50 to 100% throughout.
Take `CC(C)c1ccc(Cl)cc1N1C(=O)CS/C1=N\C(=O)NOCc1ccc(-c2ncn(-c3ccc(OC(F)(F)F)cc3)n2)cc1` [A32, (Z)-1-(3-(5-Chloro-2-isopropylphenyl)-4-oxothiazolidin-2-ylidene)-3-((4-(1-(4-(trifluoromethoxy)phenyl)-1H-1,2,4-triazol-3-yl)benzyl)oxy)urea]: the mortality at 50 µg/cm2 in test [1] and in test [2] was 50 to 100% each time.
Consider `Cc1ccc(C(C)C)c(N2C(=O)CS/C2=N\C(=O)NOCc2ccc(-c3ncn(-c4ccc(OC(F)(F)C(F)(F)F)cc4)n3)cc2)c1` [A33, (Z)-1-(3-(2-Isopropyl-5-methylphenyl)-4-oxothiazolidin-2-ylidene)-3-((4-(1-(4-(perfluoroethoxy)phenyl)-1H-1,2,4-triazol-3-yl)benzyl)oxy)urea], for which the mortality at 50 µg/cm2 in test [1] and in test [2] was 50 to 100% in each case.
As to `Cc1ccc(C(C)C)c(N2C(=O)CS/C2=N\C(=O)NOC(C)c2ccc(-c3ncn(-c4ccc(OC(F)(F)C(F)(F)F)cc4)n3)cc2)c1` (centres unmarked) [A34, (Z)-1-(3-(2-Isopropyl-5-methylphenyl)-4-oxothiazolidin-2-ylidene)-3-(1-(4-(1-(4-(perfluoroethoxy)phenyl)-1H-1,2,4-triazol-3-yl)phenyl)ethoxy)urea], the mortality at 50 µg/cm2 in test [1] and in test [2] was 50 to 100% throughout.
Turning to `Cc1ccc(C(C)C)c(N2C(=O)CS/C2=N\C(=O)ON(Cc2ccc(-c3ncn(-c4ccc(OC(F)(F)F)cc4)n3)cc2)C(=O)OC(C)(C)C)c1` [A35, tert-Butyl (Z)-(((3-(2-isopropyl-5-methylphenyl)-4-oxothiazolidin-2-ylidene)carbamoyl)oxy)(4-(1-(4-(trifluoromethoxy)phenyl)-1H-1,2,4-triazol-3-yl)benzyl)carbamate], the mortality at 50 µg/cm2 in test [1] and in test [2] was 0% each time.
